# ChEMBL document CHEMBL5303573, “Mapping human microbiome drug metabolism by gut bacteria and their genes” (Nature, 2019)
# Tests used:
# [1] = The drug is tested on Bifidobacterium longum subsp. Infantis strain: CCUG52486 for biotransformation. The drug concentrations were measured before and after a 12-h incubation by liquid-chromatography-coupled mass spectrometry (LC–MS); settings: 2 µM
# [2] = The drug is tested on Bacteroides caccae strain: ATCC43185 for biotransformation. The drug concentrations were measured before and after a 12-h incubation by liquid-chromatography-coupled mass spectrometry (LC–MS); settings: 2 µM
# [3] = The drug is tested on Bacteroides finegoldii strain: DSM17565 for biotransformation. The drug concentrations were measured before and after a 12-h incubation by liquid-chromatography-coupled mass spectrometry (LC–MS); settings: 2 µM
# [4] = The drug is tested on Bacteroides sp. WH2 strain: WH2 for biotransformation. The drug concentrations were measured before and after a 12-h incubation by liquid-chromatography-coupled mass spectrometry (LC–MS); settings: bacteroides sp. wh2, 12 h, 2 µM
# [5] = The drug is tested on Odoribacter splanchnicus strain: fecal isolate for biotransformation. The drug concentrations were measured before and after a 12-h incubation by liquid-chromatography-coupled mass spectrometry (LC–MS); settings: 2 µM
# [6] = The drug is tested on Parabacteroides merdae strain: ATCC43184 for biotransformation. The drug concentrations were measured before and after a 12-h incubation by liquid-chromatography-coupled mass spectrometry (LC–MS); settings: 2 µM
# [7] = The drug is tested on Anaerococcus hydrogenalis strain: DSM7454 for biotransformation. The drug concentrations were measured before and after a 12-h incubation by liquid-chromatography-coupled mass spectrometry (LC–MS); settings: 2 µM
# [8] = The drug is tested on Blautia luti strain: DSM14534 for biotransformation. The drug concentrations were measured before and after a 12-h incubation by liquid-chromatography-coupled mass spectrometry (LC–MS); assay type: ADME; design: dose 2 uM, timepoint 0 vs 12 hours; settings: 2 µM
# [9] = The drug is tested on Eubacterium ventriosum strain: ATCC27560 for biotransformation. The drug concentrations were measured before and after a 12-h incubation by liquid-chromatography-coupled mass spectrometry (LC–MS); assay type: ADME; design: dose 2 uM, timepoint 0 vs 12 hours; settings: 2 µM
# [10] = The drug is tested on Ruminococcus lactaris strain: ATCC29176 for biotransformation. The drug concentrations were measured before and after a 12-h incubation by liquid-chromatography-coupled mass spectrometry (LC–MS); settings: 2 µM
# [11] = The drug is tested on Providencia stuartii strain: ATCC25827 for biotransformation. The drug concentrations were measured before and after a 12-h incubation by liquid-chromatography-coupled mass spectrometry (LC–MS); settings: 2 µM
# [12] = bacteroides intestinalis, 12 h, 2 µM
# Description: The drug is tested on Bacteroides intestinalis strain: DSM17393 for biotransformation. The drug concentrations were measured before and after a 12-h incubation by liquid-chromatography-coupled mass spectrometry (LC–MS)
# [13] = bacteroides thetaiotaomicron, 12 h, 2 µM
# Description: The drug is tested on Bacteroides thetaiotaomicron strain: 3731 for biotransformation. The drug concentrations were measured before and after a 12-h incubation by liquid-chromatography-coupled mass spectrometry (LC–MS)
# [14] = parabacteroides distasonis, 12 h, 2 µM
# Description: The drug is tested on Parabacteroides distasonis strain: ATCC8503 for biotransformation. The drug concentrations were measured before and after a 12-h incubation by liquid-chromatography-coupled mass spectrometry (LC–MS)
# [15] = parabacteroides johnsonii, 12 h, 2 µM
# Description: The drug is tested on Parabacteroides johnsonii strain: DSM18315 for biotransformation. The drug concentrations were measured before and after a 12-h incubation by liquid-chromatography-coupled mass spectrometry (LC–MS)
# [16] = segatella copri, 12 h, 2 µM
# Description: The drug is tested on Prevotella copri strain: DSM18205 for biotransformation. The drug concentrations were measured before and after a 12-h incubation by liquid-chromatography-coupled mass spectrometry (LC–MS)
# [17] = anaerostipes sp., 12 h, 2 µM
# Description: The drug is tested on Anaerostipes sp. strain: fecal isolate for biotransformation. The drug concentrations were measured before and after a 12-h incubation by liquid-chromatography-coupled mass spectrometry (LC–MS)
# [18] = limosilactobacillus reuteri cf48-3a, 12 h, 2 µM
# Description: The drug is tested on Lactobacillus reuteri CF48-3A strain: BEI HM-102 for biotransformation. The drug concentrations were measured before and after a 12-h incubation by liquid-chromatography-coupled mass spectrometry (LC–MS)
# [19] = akkermansia muciniphila, 12 h, 2 µM
# Description: The drug is tested on Akkermansia muciniphila strain: ATCC BAA-835 for biotransformation. The drug concentrations were measured before and after a 12-h incubation by liquid-chromatography-coupled mass spectrometry (LC–MS)
SMILES,Bacterial Biotransformation [1],Bacterial Biotransformation [2],Bacterial Biotransformation [3],Bacterial Biotransformation [4],Bacterial Biotransformation [5],Bacterial Biotransformation [6],Bacterial Biotransformation [7],Bacterial Biotransformation [8],Bacterial Biotransformation [9],Bacterial Biotransformation [10],Bacterial Biotransformation [11],Bacterial Biotransformation [12],Bacterial Biotransformation [13],Bacterial Biotransformation [14],Bacterial Biotransformation [15],Bacterial Biotransformation [16],Bacterial Biotransformation [17],Bacterial Biotransformation [18],Bacterial Biotransformation [19]
c1ccc([C@H]2CN3CCSC3=N2)cc1 [LEVAMISOLE],Compound NOT metabolized,Compound metabolized,Compound NOT metabolized,Compound NOT metabolized,Compound metabolized,Compound NOT metabolized,Compound metabolized,Compound NOT metabolized,Compound NOT metabolized,Compound NOT metabolized,Compound metabolized,Compound metabolized,Compound NOT metabolized,Compound metabolized,Compound metabolized,Compound NOT metabolized,Compound NOT metabolized,–,–
CCCC(=O)Nc1ccc(OCC(O)CNC(C)C)c(C(C)=O)c1 (stereo unspecified) [ACEBUTOLOL],Compound NOT metabolized,Compound NOT metabolized,Compound NOT metabolized,Compound NOT metabolized,Compound NOT metabolized,Compound NOT metabolized,Compound NOT metabolized,Compound NOT metabolized,Compound NOT metabolized,Compound NOT metabolized,Compound NOT metabolized,Compound NOT metabolized,Compound NOT metabolized,–,Compound NOT metabolized,Compound NOT metabolized,Compound NOT metabolized,Compound NOT metabolized,Compound NOT metabolized
C=CCc1ccccc1OCC(O)CNC(C)C (stereo unspecified) [ALPRENOLOL],–,Compound NOT metabolized,Compound NOT metabolized,Compound NOT metabolized,Compound NOT metabolized,Compound NOT metabolized,Compound NOT metabolized,Compound NOT metabolized,Compound NOT metabolized,Compound NOT metabolized,Compound NOT metabolized,Compound NOT metabolized,–,–,–,Compound NOT metabolized,Compound NOT metabolized,Compound NOT metabolized,–
CN/C(=N/CCSCc1nc[nH]c1C)NC#N [CIMETIDINE],–,–,–,Compound NOT metabolized,–,Compound NOT metabolized,Compound NOT metabolized,Compound NOT metabolized,Compound NOT metabolized,Compound NOT metabolized,Compound NOT metabolized,Compound NOT metabolized,Compound metabolized,Compound NOT metabolized,–,–,Compound NOT metabolized,Compound NOT metabolized,Compound NOT metabolized
CN1CCC(=C2c3ccccc3CCc3cccnc32)CC1.O=C(O)/C=C\C(=O)O.O=C(O)/C=C\C(=O)O [AZATADINE MALEATE],Compound NOT metabolized,Compound NOT metabolized,Compound NOT metabolized,Compound NOT metabolized,–,Compound NOT metabolized,Compound NOT metabolized,Compound NOT metabolized,Compound NOT metabolized,Compound NOT metabolized,Compound NOT metabolized,Compound NOT metabolized,Compound NOT metabolized,Compound NOT metabolized,Compound NOT metabolized,Compound NOT metabolized,Compound NOT metabolized,Compound NOT metabolized,Compound NOT metabolized
CN(C)CCc1c[nH]c2ccc(CS(=O)(=O)N3CCCC3)cc12 [ALMOTRIPTAN],Compound NOT metabolized,Compound NOT metabolized,Compound NOT metabolized,Compound NOT metabolized,Compound NOT metabolized,Compound NOT metabolized,Compound NOT metabolized,Compound NOT metabolized,Compound NOT metabolized,Compound NOT metabolized,Compound NOT metabolized,Compound NOT metabolized,–,Compound NOT metabolized,–,Compound NOT metabolized,Compound NOT metabolized,–,–
C[N+]12CCC(CC1)C(OC(=O)C(O)(c1ccccc1)c1ccccc1)C2.[Br-] (stereo unspecified) [CLIDINIUM BROMIDE],Compound NOT metabolized,Compound NOT metabolized,Compound NOT metabolized,Compound NOT metabolized,–,Compound NOT metabolized,Compound NOT metabolized,Compound NOT metabolized,Compound NOT metabolized,Compound NOT metabolized,Compound NOT metabolized,Compound NOT metabolized,Compound NOT metabolized,Compound NOT metabolized,Compound NOT metabolized,Compound NOT metabolized,Compound NOT metabolized,–,Compound NOT metabolized
CC(C)NCC(O)COc1ccc(CC(N)=O)cc1 (stereo unspecified) [ATENOLOL],Compound NOT metabolized,–,Compound NOT metabolized,Compound NOT metabolized,–,–,Compound NOT metabolized,Compound NOT metabolized,Compound NOT metabolized,–,Compound NOT metabolized,Compound NOT metabolized,–,Compound NOT metabolized,Compound NOT metabolized,Compound NOT metabolized,Compound NOT metabolized,Compound NOT metabolized,Compound NOT metabolized
